Results: patent US9169224B2, “Piperazinyl and piperidinyl ureas as modulators of fatty acid amide hydrolase” (Janssen Pharmaceutica NV, priority 2004, dated 2015)
Where a name gives a salt, the structure may show the parent alone.

Columns and labels:
CREAE mice = conditions: Baker 2001; cited from earlier work
FAAH [1] = molecular target: T1, FAAH (Homo sapiens (Human), UniProt O00519); experiment: Assay Method 1: FAAH assay, T84 cell homogenate, 3H-anandamide hydrolysis; format: biochemical; conditions: 3H-AEA tracer 200 nM, 1 h at rt
Method in brief: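 Homogenate of human T84 cells in pH 9 Tris/EDTA buffer with 0.02% Triton X-100 was incubated with compound and 200 nM final 3H-anandamide for 1 h at rt. Released [3H]ethanolamine was separated from substrate through activated charcoal by centrifugation and quantified by scintillation counting.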

FAAH [2] = molecular target: T1, FAAH; experiment: Assay Method 2: FAAH assay, cells transfected with human FAAH; format: biochemical; conditions: T84 or human FAAH-transfected SK-N-MC cell homogenate, 3H-AEA tracer 80 nM, 1 h at rt
Description: Assay Method 2 A. Transfection of Cells with Human FAAH
(§1) A 10-cm tissue culture dish with a confluent monolayer of SK-N-MC cells was split 2 days (d) prior to transfection. Using sterile technique, the media was removed and the cells were detached from the dish by the addition of trypsin. One fifth of the cells were then placed onto a new 10-cm dish. Cells were grown in a 37° C. incubator with 5% CO2 in Minimal Essential Media Eagle with 10% Fetal Bovine Serum. After 2 d, cells were approximately 80% confluent. These cells were removed from the dish with trypsin and pelleted in a clinical centrifuge. The pellet was re-suspended in 400 μL complete media and transferred to an electroporation cuvette with a 0.4 cm gap between the electrodes. Supercoiled human FAAH cDNA (1 pg) was added to the cells and mixed. The voltage for the electroporation was set at 0.25 kV, and the capacitance was set at 960 μF. After electroporation, the cells were diluted into complete media (10 mL) and plated onto four 10-cm dishes. Because of the variability in the efficiency of electroporation, four different concentrations of cells were plated. The ratios used were 1:20, 1:10, and 1:5, with the remainder of the cells being added to the fourth dish. The cells were allowed to recover for 24 h before adding the selection media (complete media with 600 μg/mL G418). After 10 d, dishes were analyzed for surviving colonies of cells. Dishes with well-isolated colonies were used. Cells from individual colonies were isolated and tested.
(§2) T84 frozen cell pellets or transfected SK-N-MC cells (contents of 1×15 cm culture dishes) were homogenized in 50 mL of FAAH assay buffer (125 mM Tris, 1 mM EDTA, 0.2% Glycerol, 0.02% Triton X-100, 0.4 mM Hepes, pH 9). The assay mixture consisted of 50 μL of the cell homogenate, 10 μL of the test compound, and 40 pt of anandamide [1-^3H-ethanolamine] (^3H-AEA, Perkin-Elmer, 10.3 Ci/mmol), which was added last, for a final tracer concentration of 80 nM. The reaction mixture was incubated at rt for 1 h. During the incubation, 96-well Multiscreen filter plates (catalog number MAFCNOB50; Millipore, Bedford, Mass., USA) were loaded with 25 μL of activated charcoal (Multiscreen column loader, catalog number MACL09625, Millipore) and washed once with 100 μL of MeOH. Also during the incubation, 96-well DYNEX MicroLite plates (catalog number NL510410) were loaded with 100 μL of MicroScint40 (catalog number 6013641, Packard Bioscience, Meriden, Conn., USA). After the 1 h incubation, 60 μL of the reaction mixture were transferred to the charcoal plates, which were then assembled on top of the DYNEX plates using Centrifuge Alignment Frames (catalog number MACF09604, Millipore). The unbound labeled ethanolamine was centrifuged through to the bottom plate (5 min at 2000 rpm), which was preloaded with the scintillant, as described above. The plates were sealed and left at rt for 1 h before counting on a Hewlett Packard TopCount.

rat FAAH = rat FAAH (Rattus norvegicus (Rat), UniProt P97612); experiment: Assay Method 3: FAAH assay, cells transfected with rat FAAH; format: biochemical; conditions: T84 or rat FAAH-transfected SK-N-MC cell homogenate, 3H-AEA tracer 80 nM, 1 h at rt
Description: Assay Method 3 A. Transfection of Cells with Rat FAAH
as §1, with “rat” for “human”, “μg)” for “pg)”
as §2, with “μL” for “pt”

FAAH [3] = molecular target: T1, FAAH; conditions: WO 04/033652; cited from earlier work
rats [4] = conditions: WO 04/033652; cited from earlier work
rats [5] = conditions: Kathuria 2003; cited from earlier work
rats [6] = conditions: rat, Kathuria 2003; cited from earlier work

T1 sequence (O00519 whole entry): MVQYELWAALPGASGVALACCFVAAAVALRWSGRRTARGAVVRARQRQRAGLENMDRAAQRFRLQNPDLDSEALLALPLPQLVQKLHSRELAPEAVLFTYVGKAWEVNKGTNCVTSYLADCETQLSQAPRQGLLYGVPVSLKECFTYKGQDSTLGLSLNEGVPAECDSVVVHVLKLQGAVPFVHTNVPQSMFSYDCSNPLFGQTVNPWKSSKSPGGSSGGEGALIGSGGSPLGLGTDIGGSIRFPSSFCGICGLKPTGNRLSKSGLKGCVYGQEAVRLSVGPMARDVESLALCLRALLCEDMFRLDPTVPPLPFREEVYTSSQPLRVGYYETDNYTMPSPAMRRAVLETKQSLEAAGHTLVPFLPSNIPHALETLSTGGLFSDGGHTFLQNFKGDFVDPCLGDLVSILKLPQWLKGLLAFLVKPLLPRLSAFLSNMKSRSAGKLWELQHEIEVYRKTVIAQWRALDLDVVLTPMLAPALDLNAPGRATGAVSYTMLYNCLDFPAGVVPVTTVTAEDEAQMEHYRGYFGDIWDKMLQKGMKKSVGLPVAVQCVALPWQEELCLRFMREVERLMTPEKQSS
Sequence of rat FAAH (P97612 whole entry): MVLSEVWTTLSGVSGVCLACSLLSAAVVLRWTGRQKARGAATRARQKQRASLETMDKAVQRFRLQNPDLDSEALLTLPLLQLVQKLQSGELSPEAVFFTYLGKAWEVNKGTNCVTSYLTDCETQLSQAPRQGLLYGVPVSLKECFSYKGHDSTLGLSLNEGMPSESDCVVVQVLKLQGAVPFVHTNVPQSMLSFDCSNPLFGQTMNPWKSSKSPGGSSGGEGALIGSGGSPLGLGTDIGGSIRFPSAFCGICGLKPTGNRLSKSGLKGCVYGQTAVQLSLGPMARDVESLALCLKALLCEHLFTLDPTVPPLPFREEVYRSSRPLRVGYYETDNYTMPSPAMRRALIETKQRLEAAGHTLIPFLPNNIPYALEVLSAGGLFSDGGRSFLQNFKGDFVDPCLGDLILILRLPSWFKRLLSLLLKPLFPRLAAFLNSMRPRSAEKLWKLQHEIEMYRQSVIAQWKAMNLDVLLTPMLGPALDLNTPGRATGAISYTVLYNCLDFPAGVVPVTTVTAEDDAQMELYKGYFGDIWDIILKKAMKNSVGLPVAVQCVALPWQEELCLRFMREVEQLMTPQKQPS

IC50 (FAAH [1]) [µM]	IC50 (FAAH [2]) [µM]	IC50 (rat FAAH) [µM]	Compound	further results
			CCCCCCCCCCCCCCCCS(=O)(=O)F [AM374]	spasticity (CREAE mice): significantly reduce spasticity
1.3	3	10	O=C(Nc1ccccc1)N1CCN(Cc2ccccc2O)CC1 [Example 41, 4-(2-Hydroxy-benzyl)-piperazine-1-carboxylic acid phenylamide]	
0.087	0.1	0.29	O=C(Nc1ccccc1)N1CCN(Cc2ccc3c(c2)OC(F)(F)O3)CC1 [Example 52, 4-(2,2-Difluoro-benzo[1,3]dioxol-5-ylmethyl)-piperazine-1-carboxylic acid phenylamide]	
0.13	0.22	6.5	O=C(Nc1ccc(F)cc1)N1CCN(Cc2cnc3ccccc3c2)CC1 [Example 98, 4-Quinolin-3-ylmethyl-piperazine-1-carboxylic acid (4-fluoro-phenyl)-amide]	
	0.065	0.35	O=C(Nc1ccccc1)N1CCN(Cc2ccc(Cl)c(Cl)c2)CC1 [Example 157, 4-(3,4-Dichloro-benzyl)-piperazine-1-carboxylic acid phenylamide]	
	1.8	8	O=C(Nc1ccccn1)N1CCN(Cc2cnc3ccccc3c2)CC1 [Example 143, 4-Quinolin-3-ylmethyl-piperazine-1-carboxylic acid pyridin-2-ylamide]	
	1	60	O=C(Nc1ccncn1)N1CCN(Cc2ccc3c(c2)OC(F)(F)O3)CC1 [Example 153, 4-(2,2-Difluoro-benzo[1,3]dioxol-5-ylmethyl)-piperazine-1-carboxylic acid pyrimidin-4-ylamide]	
	> 10	10	CN(C(=O)N1CCN(Cc2ccc(Br)c(Br)c2)CC1)c1ccccc1 [Example 160, 4-(3,4-Dibromo-benzyl)-piperazine-1-carboxylic acid methyl-phenyl-amide]	
			O=C(CCCCCCc1ccccc1)c1ncc(-c2ccccn2)o1 [OL-135]	inhibition of FAAH (FAAH [3]): potent inhibitor of FAAH; analgesic activity (rats [4]): analgesic activity
			NC(=O)c1cccc(-c2cccc(OC(=O)NC3CCCCC3)c2)c1 [URB-597]	efficacy in anxiety model (rats [5]): efficacy; analgesic efficacy (rats [6]): analgesic efficacy
	0.23	2	COC(=O)c1cccc(NC(=O)N2CCN(Cc3cnc4ccccc4c3)CC2)c1 [Example 106, 3-[(4-Quinolin-3-ylmethyl-piperazine-1-carbonyl)-amino]-benzoic acid methyl ester]	
0.031	0.019	0.18	O=C(Nc1ccccc1)N1CCN(Cc2ccc(Br)c(Br)c2)CC1 [Example 21, 4-(3,4-Dibromo-benzyl)-piperazine-1-carboxylic acid phenylamide]	
0.22	0.38	10	CC(C)c1ccc(CN2CCN(C(=O)Nc3ccccc3)CC2)cc1 [Example 32, 4-(4-Isopropyl-benzyl)-piperazine-1-carboxylic acid phenylamide]	
0.021	0.016	0.05	O=C(Nc1ccccc1)N1CCN(Cc2ccc3ccccc3c2O)CC1 [Example 59, 4-(1-Hydroxy-naphthalen-2-ylmethyl)-piperazine-1-carboxylic acid phenylamide]	
0.29	0.33	0.41	O=C(Nc1ccccc1)N1CCN(Cc2cc(Br)ccc2O)CC1 [Example 34, 4-(5-Bromo-2-hydroxy-benzyl)-piperazine-1-carboxylic acid phenylamide]	
	> 10	10	O=C(O)c1ccccc1NC(=O)N1CCN(Cc2cnc3ccccc3c2)CC1 [Example 140, 2-[(4-Quinolin-3-ylmethyl-piperazine-1-carbonyl)-amino]-benzoic acid (potassium salt)]	
	4	10	O=C(Nc1ccccn1)N1CCN(Cc2ccc3c(c2)OCO3)CC1 [Example 149, 4-Benzo[1,3]dioxol-5-ylmethyl-piperazine-1-carboxylic acid pyridin-2-ylamide]	
0.017	0.023	0.265	O=C(Nc1ccccc1)N1CCN(Cc2ccc3ccccc3c2)CC1 [Example 18, 4-Naphthalen-2-ylmethyl-piperazine-1-carboxylic acid phenylamide]	
	0.84	8	O=C(Nc1ccccc1)N1CCN(Cc2cnc3ccccc3n2)CC1 [Example 156, 4-Quinoxalin-2-ylmethyl-piperazine-1-carboxylic acid phenylamide]	
	> 10	10	O=C(Nc1nccs1)N1CCN(Cc2cnc3ccccc3c2)CC1 [Example 158, 4-Quinolin-3-ylmethyl-piperazine-1-carboxylic acid thiazol-2-ylamide]	
	8	10	O=C(Nc1ncccn1)N1CCN(Cc2cnc3ccccc3c2)CC1 [Example 145, 4-Quinolin-3-ylmethyl-piperazine-1-carboxylic acid pyrimidin-2-ylamide]	
